Biological target: human RIP1 kinase domain (2-375) (Homo sapiens (Human), UniProt Q13546)
Assay: biochemical
Type: biochemical
Conditions: Table 1; apparent Ki (Morrison tight-binding fit); 50 nM RIP1 kinase domain, 50 uM ATP, 2 hours incubation; read-out: RIP1 Ki
Summary of the method: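 Ki^app comes from Morrison tight-binding fits of fractional activity versus compound concentration. Activity was read as ADP production, via tracer displacement lowering fluorescence polarization (633 nm laser). Conditions: 2 h, 50 nM insect-cell-expressed enzyme, 50 uM ATP, 30 mM MgCl2, 1 mM DTT, 0.5% DMSO, pH 7.5 Hepes.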

Sequence of human RIP1 kinase domain (2-375) (Q13546 2-375): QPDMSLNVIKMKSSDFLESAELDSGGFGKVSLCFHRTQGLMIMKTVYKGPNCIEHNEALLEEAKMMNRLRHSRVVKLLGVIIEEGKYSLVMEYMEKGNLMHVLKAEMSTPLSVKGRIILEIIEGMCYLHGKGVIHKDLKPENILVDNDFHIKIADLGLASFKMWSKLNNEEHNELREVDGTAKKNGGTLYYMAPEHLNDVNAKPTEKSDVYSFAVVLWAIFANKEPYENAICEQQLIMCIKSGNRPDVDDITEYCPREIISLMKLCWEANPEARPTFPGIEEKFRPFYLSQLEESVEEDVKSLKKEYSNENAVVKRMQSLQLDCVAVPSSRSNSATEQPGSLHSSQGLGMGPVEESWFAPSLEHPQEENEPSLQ

Structure (SMILES) | Ki
O=C(N[C@H]1COc2[nH]ncc2NC1=O)c1ccn(Cc2ccc(F)c(F)c2)n1 [Example 16, (S)-1-(3,4-difluorobenzyl)-N-(5-oxo-4,5,6,7-tetrahydro-1H-pyrazolo[3,4-b][1,4]oxazepin-6-yl)-1H-pyrazole-3-carboxamide] | > 10000 nM
CN1C(=O)[C@@H](NC(=O)c2n[nH]c3c2C2CC2CC3)COc2ccccc21 (stereo partly drawn) [Example 59, N-((S)-5-methyl-4-oxo-2,3,4,5-tetrahydrobenzo[b][1,4]oxazepin-3-yl)-3,4,5,5a,6,6a-hexahydrocyclopropa[e]indazole-1-carboxamide] | 1700 nM
CN1C(=O)[C@@H](NC(=O)c2cc3c(cn2)COC3(C)C)COc2ccccc21 [Example 22, (S)-1,1-dimethyl-N-(5-methyl-4-oxo-2,3,4,5-tetrahydrobenzo[b][1,4]oxazepin-3-yl)-1,3-dihydrofuro[3,4-c]pyridine-6-carboxamide] | 898 nM

Same assay, conditions: Table 5; apparent Ki (Morrison tight-binding fit); 50 nM RIP1 kinase domain, 50 uM ATP, 2 hours incubation; read-out: Ki

Ki | Structure (SMILES)
34 nM | CN1C(=O)[C@@H](NC(=O)c2cc3n(n2)CCC[C@@H]3c2ccccc2F)COc2ccccc21 [Example 709, (4R)-4-(2-fluorophenyl)-N-[(3S)-5-methyl-4-oxo-2,3-dihydro-1,5-benzoxazepin-3-yl]-4,5,6,7-tetrahydropyrazolo[1,5-a]pyridine-2-carboxamide]
300 nM | CN1C(=O)[C@@H](NC(=O)c2nc3n(n2)CCNC3C(F)(F)F)COc2ccccc21 (stereo partly drawn) [Example 731, N—((S)-5-methyl-4-oxo-2,3,4,5-tetrahydrobenzo[b][1,4]oxazepin-3-yl)-8-(trifluoromethyl)-5,6,7,8-tetrahydro-[1,2,4]triazolo[1,5-a]pyrazine-2-carboxamide]
112 nM | CN1C(=O)[C@@H](NC(=O)c2nc3n(n2)CCN(C)C3c2ccccc2)COc2ccccc21 (single isomer, unassigned) [Example 730]
24 nM | CN1C(=O)[C@@H](NC(=O)c2cc3c(-c4ccccc4)cccc3cn2)CCn2nccc21 (racemic) [Example 703, 5-phenyl-N-[rac-(6S)-4-methyl-5-oxo-7,8-dihydro-6H-pyrazolo[1,5-a][1,3]diazepin-6-yl]isoquinoline-3-carboxamide]
155 nM | CN1C(=O)[C@@H](NC(=O)c2ncn(Cc3ccccc3)n2)CCn2nc(CN3CCOCC3)cc21 [Example 779, (S)-1-benzyl-N-(4-methyl-2-(morpholinomethyl)-5-oxo-5,6,7,8-tetrahydro-4H-pyrazolo[1,5-a][1,3]diazepin-6-yl)-1H-1,2,4-triazole-3-carboxamide]
112 nM | CN1C(=O)[C@@H](NC(=O)c2nc3n(n2)CCN(C)C3c2ccccc2)COc2ccccc21 (stereo partly drawn) [Example 786, 7-methyl-N-[(3S)-5-methyl-4-oxo-2,3-dihydro-1,5-benzoxazepin-3-yl]-8-phenyl-6,8-dihydro-5H-[1,2,4]trizolo [1,5-a]pyrazine-2-carboxamide]
413 nM | Cc1nccn1Cc1cc2n(n1)CCC(NC(=O)c1ncn(Cc3ccccc3)n1)C(=O)N2C (racemic) [Example 706, 1-benzyl-N-[4-methyl-2-[(2-methylimidazol-1-yl)methyl]-5-oxo-7,8-dihydro-6H-pyrazolo[1,5-a][1,3]diazepin-6-yl]-1,2,4-triazole-3-carboxamide]
444 nM | COC1CN(Cc2cc3n(n2)CCC(NC(=O)c2ncn(Cc4ccccc4)n2)C(=O)N3C)C1 (single isomer, unassigned) [Example 722, 1-benzyl-N-[2-[(3-methoxyazetidin-1-yl)methyl]-4-methyl-5-oxo-7,8-dihydro-6H-pyrazolo[1,5-a][1,3]diazepin-6-yl]-1,2,4-triazole-3-carboxamide]

Same assay, conditions: human RIP1 kinase domain (2-375), 50 uM ATP, 2 hours incubation, Transcreener ADP assay; read-out: RIP1 Ki

Ki | Structure (SMILES)
24.5 nM | Cc1cc2n(n1)CC[C@H](NC(=O)c1ncn(Cc3ccc(F)cc3)n1)C(=O)N2C [Example 164, (S)-N-(2,4-dimethyl-5-oxo-5,6,7,8-tetrahydro-4H-pyrazolo[1,5-a][1,3]diazepin-6-yl)-1-(4-fluorobenzyl)-1H-1,2,4-triazole-3-carboxamide]
12.3 nM | CC(C)n1ncc2cnc(C(=O)N[C@H]3COc4ccccc4N(C)C3=O)cc21 [Example 213, (S)-1-isopropyl-N-(5-methyl-4-oxo-2,3,4,5-tetrahydrobenzo[b][1,4]oxazepin-3-yl)-1H-pyrazolo[4,3-c]pyridine-6-carboxamide]
22 nM | CN1C(=O)[C@@H](NC(=O)c2nnn3ccc(C(F)(F)F)cc23)COc2ccccc21 [Example 191, (S)—N-(5-methyl-4-oxo-2,3,4,5-tetrahydrobenzo[b][1,4]oxazepin-3-yl)-5-(trifluoromethyl)-[1,2,3]triazolo[1,5-a]pyridine-3-carboxamide]
269 nM | CN1C(=O)[C@@H](NC(=O)c2cc3c(cn2)CO[C@@]3(C)CC(F)(F)F)COc2ccccc21 [Example 168, (S)-1-methyl-N-((S)-5-methyl-4-oxo-2,3,4,5-tetrahydrobenzo[b][1,4]oxazepin-3-yl)-1-(2,2,2-trifluoroethyl)-1,3-dihydrofuro[3,4-c]pyridine-6-carboxamide]

Same assay, conditions: human RIP1 kinase domain (2-375), Transcreener ADP assay, 50 uM ATP, 2 hours incubation; read-out: RIP1 Ki

Ki | Structure (SMILES)
44.6 nM | CN1C(=O)[C@@H](NC(=O)c2cc3c(cn2)COC3(C)CC(F)(F)F)COc2ccccc21 (stereo partly drawn) [Example 229, 1-methyl-N—((S)-5-methyl-4-oxo-2,3,4,5-tetrahydrobenzo[b][1,4]oxazepin-3-yl)-1-(2,2,2-trifluoroethyl)-1,3-dihydrofuro[3,4-c]pyridine-6-carboxamide]
16.4 nM | CN1C(=O)[C@@H](NC(=O)c2ncn(Cc3cccc(F)c3F)n2)CCn2nc([C@@H]3CC3(F)F)cc21 [Example 320, 1-(2,3-difluorobenzyl)-N—((S)-2-((S)-2,2-difluorocyclopropyl)-4-methyl-5-oxo-5,6,7,8-tetrahydro-4H-pyrazolo[1,5-a][1,3]diazepin-6-yl)-1H-1,2,4-triazole-3-carboxamide]
72.8 nM | CN1C(=O)C(NC(=O)c2n[nH]c(Cc3ccccc3)n2)CCn2cncc21 (centres unmarked) [Example 293, 5-benzyl-N-(1-methyl-2-oxo-2,3,4,5-tetrahydro-1H-imidazo[1,5-a][1,3]diazepin-3-yl)-1H-1,2,4-triazole-3-carboxamide]
695 nM | Cc1cc2n(n1)CCC(NC(=O)c1ncn(CC3CCC(F)(F)CC3)n1)C(=O)N2C (centres unmarked) [Example 246, 1-((4,4-difluorocyclohexyl)methyl)-N-(2,4-dimethyl-5-oxo-5,6,7,8-tetrahydro-4H-pyrazolo[1,5-a][1,3]diazepin-6-yl)-1H-1,2,4-triazole-3-carboxamide]
36.8 nM | CC[C@@]1(C)OCc2cnc(C(=O)N[C@H]3COc4cc(F)cc(F)c4NC3=O)cc21 [Example 244, (R)—N—((S)-6,8-difluoro-4-oxo-2,3,4,5-tetrahydrobenzo[b][1,4]oxazepin-3-yl)-1-ethyl-1-methyl-1,3-dihydrofuro[3,4-c]pyridine-6-carboxamide]

Same assay, conditions: tight-binding apparent inhibition constant; human RIP1 kinase domain (2-375) 50 nM, 50 uM ATP, 2 hours; read-out: Ki

Ki | Structure (SMILES)
46 nM | CN1C(=O)C(NC(=O)c2ncn(Cc3ccccc3)n2)CCn2nc(C3CCC3)cc21 (centres unmarked) [Example 454, 1-Benzyl-N-(2-cyclobutyl-4-methyl-5-oxo-5,6,7,8-tetrahydro-4H-pyrazolo[1,5-a][13]diazepin-6-yl)-1H-1,2,4-triazole-3-carboxamide]
10.8 nM | CN1C(=O)[C@@H](NC(=O)c2nc3n(n2)C(C2CCCCC2)CCC3)COc2ccccc21 (stereo partly drawn) [Example 377, 5-cyclohexyl-N—((S)-5-methyl-4-oxo-2,3,4,5-tetrahydrobenzo[b][1,4]oxazepin-3-yl)-5,6,7,8-tetrahydro-[1,2,4]triazolo[1,5-a]pyridine-2-carboxamide]
36 nM | CC[C@H]1C[C@@H](Cn2cnc(C(=O)N[C@H]3CCn4nc(C)cc4N(C)C3=O)n2)C1 [Example 500, N—((S)-2,4-dimethyl-5-oxo-5,6,7,8-tetrahydro-4H-pyrazolo[1,5-a][1,3]diazepin-6-yl)-1-(((1R,3R)-3-ethylcyclobutyl)methyl)-1H-1,2,4-triazole-3-carboxamide]
4.63 nM | CCC[C@@H]1CCCc2nc(C(=O)N[C@H]3COc4ccccc4N(C)C3=O)nn21 (racemic) [Example 416, (R)—N—((S)-5-methyl-4-oxo-2,3,4,5-tetrahydrobenzo[b][1,4]oxazepin-3-yl)-5-propyl-5,6,7,8-tetrahydro-[1,2,4]triazolo[1,5-a]pyridine-2-carboxamide]
13.8 nM | O=C(N[C@H]1COc2cc(F)cc(F)c2NC1=O)c1nc2n(n1)[C@H](C(F)(F)F)CC2 [Example 348, (5S)—N-[(3S)-6,8-difluoro-4-oxo-3,5-dihydro-2H-1,5-benzoxazepin-3-yl]-5-(trifluoromethyl)-6,7-dihydro-5H-pyrrolo[1,2-b][1,2,4]triazole-2-carboxamide]
154 nM | CN1C(=O)[C@@H](NC(=O)c2nc3n(n2)C(c2ccccc2)CCC3)CCn2nccc21 (stereo partly drawn) [Example 380, N—((S)-4-methyl-5-oxo-5,6,7,8-tetrahydro-4H-pyrazolo[1,5-a][1,3]diazepin-6-yl)-5-phenyl-5,6,7,8-tetrahydro-[1,2,4]triazolo[1,5-a]pyridine-2-carboxamide]
190 nM | Cc1nc(C)n2c1N(C)C(=O)[C@H](NC(=O)c1ncn(Cc3ccccc3)n1)CC2 [Example 608, 1-benzyl-N-(3R)-1,7,9-trimethyl-2-oxo-4,5-dihydro-3H-imidazo[1,5-a][1,3]diazepin-3-yl-1,2,4-triazole-3-carboxamide]
25.2 nM | CCC[C@H]1CCCc2nc(C(=O)N[C@H]3CCc4cc(F)cc(F)c4NC3=O)nn21 (single isomer, unassigned) [Example 435]
62 nM | Cc1cn2c(n1)N(C)C(=O)[C@H](NC(=O)c1ncn(Cc3c(F)cccc3F)n1)CC2 [Example 660, 1-[(2,6-difluorophenyl)methyl]-N-(7R)-2,9-dimethyl-8-oxo-6,7-dihydro-5H-imidazo[1,2-a][1,3]diazepin-7-yl-1,2,4-triazole-3-carboxamide]

Source: patent publication US10988459B2 (priority 2015, dated 2021)
